Measurements: PMC6001238, “Iterative Chemical Engineering of Vancomycin Leads to Novel Vancomycin Analogs With a High in Vitro Therapeutic Index” (Frontiers in Microbiology, 2018)
≈ marks a conversion by molar mass, not a printed value.

Experiments:
[1] = system: S. aureus VSSA (ATCC 6538); assay: MIC, broth microdilution, vancomycin-sensitive S. aureus (VSSA/MSSA, ATCC 6538); type: cell-based, Staphylococcus aureus; conditions: for MIC: Staphylococcus aureus VSSA, read-out: MIC; for MIC-fold improvement vs. vancomycin: VSSA, ratio of MIC of vancomycin and MIC of analogue
Method in brief: (§1)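 Assayed by broth microdilution under CLSI antimicrobial testing rules. One case paired the analog or control drug with vancomycin at a 10 μM final concentration; water and inoculum-free broth were controls.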

MRSA KS2 = assay: MIC, broth microdilution, MRSA KS2; type: cell-based, Staphylococcus aureus; conditions: for MIC-fold improvement vs. vancomycin: MRSA KS2, ratio of MIC of vancomycin and MIC of analogue; for MIC: Staphylococcus aureus MRSA KS2, read-out: MIC
Experimental: (§2) The minimum inhibitory concentration (MIC) was determined using the broth microdilution method according to the antimicrobial susceptibility testing standards of the clinical and laboratory standards institute ([Clinical and Laboratory Standards Institute [CLSI], 2012]). Ultrapure water and non-inoculated broth were used as controls. In one case, a final concentration of 10 μM vancomycin was included with the vancomycin analog or control antibiotic.

[2] = system: human cervix carcinoma (HeLa) cells; assay: Cytostatic activity, HeLa cell proliferation; type: cell-based; conditions: mean ± SD of three experiments; highest concentration tested 250 µM; 4 days; read-out: Toxicity (IC50) HeLa
Method in brief: (§3)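 Readout: Coulter cell number after drug exposure at 37°C. Durations differ by line (L1210 2 days; CEM 3 days; HeLa 4 days). Stock suspension 300,000–500,000 cells/mL, diluted by mixing with compound. Endpoint: IC50 vs negative control.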

E. faecalis VRE 37 = assay: MIC, broth microdilution, vancomycin-resistant E. faecalis VRE 37 (VanA); type: cell-based, Enterococcus faecalis; conditions: for MIC: Enterococcus faecalis VRE 37 (vancomycin-resistant), read-out: MIC
Method in brief: as §1

[3] = system: Murine leukemia (L1210) cells; assay: Cytostatic activity, L1210 cell proliferation; type: cell-based; conditions: mean ± SD of three experiments; highest concentration tested 250 µM; 2 days; read-out: Toxicity (IC50) L1210
Method in brief: as §3

E. faecalis VSE 1 = assay: MIC, broth microdilution, vancomycin-sensitive E. faecalis (VSE 1); type: cell-based, Enterococcus faecalis; conditions: for MIC: Enterococcus faecalis VSE 1 (vancomycin-sensitive), read-out: MIC; for MIC-fold improvement vs. vancomycin: VSE 1, ratio of MIC of vancomycin and MIC of analogue
Method in brief: as §1

MRSA KS6 = assay: MIC, broth microdilution, MRSA KS6; type: cell-based, Staphylococcus aureus; conditions: for MIC-fold improvement vs. vancomycin: MRSA KS6, ratio of MIC of vancomycin and MIC of analogue; for MIC: Staphylococcus aureus MRSA KS6, read-out: MIC
Experimental: as §2

S. aureus VISA/HIP5827 = assay: MIC, broth microdilution, vancomycin-intermediate S. aureus VISA HIP5827; type: cell-based, Staphylococcus aureus; conditions: for MIC: Staphylococcus aureus VISA/HIP5827, read-out: MIC; for MIC-fold improvement vs. vancomycin: VISA/HIP5827, ratio of MIC of vancomycin and MIC of analogue
Method in brief: as §1

MRSA KS1 = assay: MIC, broth microdilution, MRSA KS1; type: cell-based, Staphylococcus aureus; conditions: for MIC-fold improvement vs. vancomycin: MRSA KS1, ratio of MIC of vancomycin and MIC of analogue; for MIC: Staphylococcus aureus MRSA KS1, read-out: MIC
Experimental: as §2

E. faecalis VRE 29 = assay: MIC, broth microdilution, vancomycin-resistant E. faecalis VRE 29 (VanA); type: cell-based, Enterococcus faecalis; conditions: for MIC: Enterococcus faecalis VRE 29 (vancomycin-resistant), read-out: MIC; for MIC-fold improvement vs. vancomycin: VRE 29, ratio of MIC of vancomycin and MIC of analogue
Method in brief: as §1

E. faecalis VRE 53 = assay: MIC, broth microdilution, vancomycin-resistant E. faecalis VRE 53 (VanA); type: cell-based, Enterococcus faecalis; conditions: for MIC: Enterococcus faecalis VRE 53 (vancomycin-resistant), read-out: MIC; for MIC-fold improvement vs. vancomycin: VRE 53, ratio of MIC of vancomycin and MIC of analogue
Method in brief: as §1

E. faecalis VRE 6 = assay: MIC, broth microdilution, vancomycin-resistant E. faecalis VRE 6 (VanA); type: cell-based, Enterococcus faecalis; conditions: for MIC: Enterococcus faecalis VRE 6 (vancomycin-resistant), read-out: MIC; for MIC-fold improvement vs. vancomycin: VRE 6, ratio of MIC of vancomycin and MIC of analogue
Method in brief: as §1

MRSA KS89 = assay: MIC, broth microdilution, MRSA KS89; type: cell-based, Staphylococcus aureus; conditions: for MIC-fold improvement vs. vancomycin: MRSA KS8, ratio of MIC of vancomycin and MIC of analogue; for MIC: Staphylococcus aureus MRSA KS8, read-out: MIC
Method in brief: as §1

S. aureus VRSA = assay: MIC, broth microdilution, vancomycin-resistant S. aureus (VRSA); type: cell-based, Staphylococcus aureus; conditions: for MIC: Staphylococcus aureus VRSA, read-out: MIC; for MIC-fold improvement vs. vancomycin: VRSA, ratio of MIC of vancomycin and MIC of analogue
Method in brief: as §1

[4] = system: human T-lymphocyte (CEM) cells; assay: Cytostatic activity, CEM cell proliferation; type: cell-based; conditions: mean ± SD of three experiments; highest concentration tested 250 µM; 3 days; read-out: Toxicity (IC50) CEM
Method in brief: as §3

[5] = system: L1210, CEM and HeLa cell lines; assay: Cytostatic activity, average or summary over L1210, CEM and HeLa; type: cell-based; conditions: average of L1210, CEM and HeLa; read-out: Toxicity (IC50) Average
Method in brief: as §3

Structure (SMILES)	MIC [1] [µM]	MIC-fold improvement vs. vancomycin [1]	MIC-fold improvement vs. vancomycin (MRSA KS2)	MIC (MRSA KS2) [µM]	IC50 [2] [µM]	MIC (E. faecalis VRE 37) [µM]	IC50 [3] [µM]	MIC (E. faecalis VSE 1) [µM]	MIC-fold improvement vs. vancomycin (E. faecalis VSE 1)	MIC-fold improvement vs. vancomycin (MRSA KS6)	MIC (MRSA KS6) [µM]	MIC (S. aureus VISA/HIP5827) [µM]	MIC-fold improvement vs. vancomycin (S. aureus VISA/HIP5827)	MIC-fold improvement vs. vancomycin (MRSA KS1)	MIC (MRSA KS1) [µM]	MIC (E. faecalis VRE 29) [µM]	MIC-fold improvement vs. vancomycin (E. faecalis VRE 29)	MIC (E. faecalis VRE 53) [µM]	MIC-fold improvement vs. vancomycin (E. faecalis VRE 53)	MIC (E. faecalis VRE 6) [µM]	further results
CNC(CC(C)C)C(=O)NC1C(=O)NC(CC(N)=O)C(=O)NC2C(=O)NC3C(=O)NC(C(=O)NC(C(=O)NCCCNC(=O)c4cc5cc(F)ccc5[nH]4)c4cc(O)cc(O)c4-c4cc3ccc4O)C(O)c3ccc(c(Cl)c3)Oc3cc2cc(c3OC2OC(CO)C(O)C(O)C2OC2CC(C)(N)C(O)C(C)O2)Oc2ccc(cc2Cl)C1O (stereo not shown) [Vanc-45]	0.39 (≈ 0.65 µg/mL)	2	2	0.39 (≈ 0.65 µg/mL)	> 250	12.5 (≈ 20.8 µg/mL)	> 250	0.39 (≈ 0.65 µg/mL)	4	0.25	3.13 (≈ 5.22 µg/mL)	1.56 (≈ 2.6 µg/mL)	4	2	0.39 (≈ 0.65 µg/mL)	12.5 (≈ 20.8 µg/mL)	32	25 (≈ 41.7 µg/mL)	16	3.13 (≈ 5.22 µg/mL)	MIC-fold improvement vs. vancomycin (E. faecalis VRE 6): 64; MIC-fold improvement vs. vancomycin (MRSA KS89): 2; MIC (MRSA KS89): 0.39 µM (≈ 0.65 µg/mL); MIC (S. aureus VRSA): 1.56 µM (≈ 2.6 µg/mL); MIC-fold improvement vs. vancomycin (S. aureus VRSA): 64; IC50 [4]: > 250 µM; IC50 [5]: > 250 µM
CNC(CC(C)C)C(=O)NC1C(=O)NC(CC(N)=O)C(=O)NC2C(=O)NC3C(=O)NC(C(=O)NC(C(=O)NCCCNC(=O)c4ccc5cc(O)ccc5c4)c4cc(O)cc(O)c4-c4cc3ccc4O)C(O)c3ccc(c(Cl)c3)Oc3cc2cc(c3OC2OC(CO)C(O)C(O)C2OC2CC(C)(N)C(O)C(C)O2)Oc2ccc(cc2Cl)C1O (stereo not shown) [Vanc-30]	0.39 (≈ 0.653 µg/mL)	2	2	0.39 (≈ 0.653 µg/mL)	45 ± 25	25 (≈ 41.9 µg/mL)	> 250	0.39 (≈ 0.653 µg/mL)	4	2	0.39 (≈ 0.653 µg/mL)	0.39 (≈ 0.653 µg/mL)	16	2	0.39 (≈ 0.653 µg/mL)	12.5 (≈ 20.9 µg/mL)	32	25 (≈ 41.9 µg/mL)	16	3.13 (≈ 5.24 µg/mL)	MIC-fold improvement vs. vancomycin (E. faecalis VRE 37; VRE 37, ratio of MIC of vancomycin and MIC of analogue): 16; MIC-fold improvement vs. vancomycin (E. faecalis VRE 6): 64; MIC-fold improvement vs. vancomycin (MRSA KS89): 2; MIC (MRSA KS89): 0.39 µM (≈ 0.653 µg/mL); MIC (S. aureus VRSA): 3.13 µM (≈ 5.24 µg/mL); MIC-fold improvement vs. vancomycin (S. aureus VRSA): 32; IC50 [4]: > 250 µM; IC50 [5]: 182 µM
